What was measured:
[1] = test system: androst-4-ene 3, 17-dione metabolism; assay: Steroid metabolism (androst-4-ene 3, 17-dione metabolism) of liver cells; assay type: cell-based, rat; settings: STZ diabetic rats; Extract 1 200 μg/ml, Extract 2 10-120 μg/ml, Extract 3 1 ng/ml, Insulin 1 ng/ml, Inositol 100-100 μg/ml
Experimental: Isolated hepatocytes were prepared from control animals by a modification of the double perfusior technique of Seglen (1973) involving […] animal with halothane/nitrous oxide and inserting a cannula into the hepatic portal vein. The liver was subsequently perfused first with a calcium-free buffer and then with collagenase solution. The isolated cells were freed from the connective tissue by gentle combing. Hepatocytes were suspended in Ham's F-10 nutrient solution, Williams' medium E or Krebs-Henseleit medium depending on the assay to be performed. The effects of Extract 1 on steroid metabolism in liver cells was also studied. The animals were killed by CO2 asphyxiation and the liver quickly exised and placed in ice-cold buffer (0.1M phosphate buffer, pH 7.4). The liver was homogenised using a Potter-Elvehjem homogeniser with a teflon pestle and microsomes were prepared by differential centrifugation. The microsomes were resuspended by gentle homogenisation in the same buffer. The protein content was measured by the method of Lowry using bovine serum albumin as standard and the microsomes were diluted by 10 mg protein/ml. The diluted microsomes were assayed for aniline 4-hydroxylase activity and aminopyrine N-demethylase activity (results not shown) and for androst-4-ene 3, 17-dione metabolism using published methodology. […]

Glycogen phosphorylase a = Glycogen phosphorylase a activity in isolated rat hepatocytes (insulin-like activity); assay type: cell-based; settings: for Activity of liver cells: Glycogen Phosphorylase a activity: isolated rat hepatocytes, Extract 1 200 μg/ml, Extract 3 1 ng/ml, Insulin 1 ng/ml, Inositol 100-100 μg/ml
Experimental: (§1) Isolated hepatocytes were prepared from control animals by a modification of the double perfusior technique of Seglen (1973) involving anaesthetising he animal with halothane/nitrous oxide and inserting a cannula into the hepatic portal vein. The liver was subsequently perfused first with a calcium-free buffer and then with collagenase solution. The isolated cells were freed from the connective tissue by gentle combing. Hepatocytes were suspended in Ham's F-10 nutrient solution, Williams' medium E or Krebs-Henseleit medium depending on the assay to be performed.
(§2) Glycogen phosphorylase a activity, as an index of insulin-like or glucagon antagonist activity can be measured using falling logarithmic concentrations of analyte in the presence or absence of insulin or glucagon.
Isolated hepatocytes, suspended in Krebs-Henseleit solution at a concentration of 10^6 cells/ml, were treated with Artemisia extract at a concentration of […] (final concentration) in the presence or absence of insulin (10^−7M) or glucagon ([…]) for 2 minutes in a shaking water bath at 37° C. under constant oxygenation with 100% oxygen. The cells were subsequently centrifuged for 30s in a Beckman Microfuge and the pellet resuspended in MOPS buffer (pH 6.5) containing sodium fluoride (12.6 g/l), EDTA (1.85 g/l) and a dithiothreitol (0.31 g/l) at 10^6 cells/ml. The suspended cells were homogenised in a Potter-Elvehjem homogeniser and the homogenate centrifuged at 300×g in a Damon-IEC refrigerated centrifuge at 4° C. for 10 minutes. The resultant supernatant was used to assay for glycogen phosphorylase a activity as described by Preiksatis & Kunos (1979). This technique involves the measurement of [^14C]glycose-1-phosphate to glycogen conversion in the presence of caffeine to inhibit glycogen phosphorylase b activity.
Each fraction was carefully evaporated to dryness and weighed in a tared vessel. The dried samples were redissolved in methanol (100 μl) and (100 μl of H2O for the void volume) and subjected to chromatography. […]

[2] = dietary supplementation; The Lancet May 20, 1989; cited from earlier work
STZ Diabetic Rats = assay: Antidiabetic activity in STZ diabetic rats; assay type: in vivo, rat; settings: Extract 2 10-120 μg/ml po
Experimental: This extract, referred to as Extract 1 or Fraction 1, was tested in rats rendered diabetic by administration of Streptotozocin (STZ), and in in vitro tests for insulin-like activity. Toxicity was tested in a bacterial (Ames) mutagenicity test.
Urine was tested for the presence of ketones and glucose using Keto-Diabur Test 5000 sticks (Boehringer Mannheim, Lewes, UK). Glucose was assayed by the glucose oxidase method as described by Trinder (1969) using a kit supplied by the Sigma Chemical Co Ltd, Pool, UK)
The animals were monitored for 7 day periods before being made diabetic, after induction of diabetes by administration of STZ and during Artemisia treatment, so that each animal acted as its own control. Food intake rose after induction of diabetes and fell again following treatment with Artemisia.

[3] = test system: Escherichia coli and Salmonella typhimurium; assay: Ames bacterial mutagenicity test, liver fraction supplemented; assay type: cell-based; settings: Ames test with liver fraction
Excerpt: Escherichia coli and Salmonella typhimurium were used in the Ames test (B. N. Ames, J. McCann, E. Yamasaki—Mutation Res. 31 (1975) 347). The bacteria used carry a mutation which makes them dependent upon the presence of a specific nutrient medium for growth. If the test substance added to the growth medium of a plate of such bacteria is mutagenic, then a small proportion of the mutations it induces will cause the nutrient dependency mutation to revert, so that the bacteria will synthesise the nutrient and grow even in its absence. Observing whether colonies grow on nutrient deficient plates in the presence and absence of the test substance will thus reveal whether the substance is mutagenic and can give a measure of the mutagenicity of the substance.

glucagon response = assay: Glycogen phosphorylase a activity in isolated hepatocytes in the presence of glucagon (glucagon antagonist activity); assay type: cell-based, rat; settings: Extract 1 200 μg/ml, Extract 3 1 ng/ml, Insulin 1 ng/ml
Experimental: as §1, §2
Isolated hepatocytes, suspended in Krebs-Henseleit solution at a concentration of 10^6 cells/ml, were treated with Artemisia extract at a concentration of […] (final concentration) in the presence or absence of insulin (10^−7M) or glucagon ([…]) for 2 minutes in a shaking water bath at 37° C. under constant oxygenation with 100% oxygen. The cells were subsequently centrifuged for 30s in a Beckman Microfuge and the pellet resuspended in MOPS buffer (pH 6.5) containing sodium fluoride (12.6 g/l), EDTA (1.85 g/l) and a dithiothreitol (0.31 g/l) at 10^6 cells/ml. […]

[4] = Extract 1 200 μg/ml po, Extract 3 1 ng/ml po, Insulin 1 ng/ml sc

Compound | Activity of liver cells: Steroid metabolism [1] | Activity of liver cells: Glycogen Phosphorylase a activity (Glycogen phosphorylase a) | activity in the in vitro liver cell system (Glycogen phosphorylase a; levels of up to 1 mg/ml) | improvement of nerve function in the management of complications of diabetes mellitus [2] | Excessive food intake (STZ Diabetic Rats; Extract 1 200 μg/ml po (drinking water), Extract 3 1 ng/ml po, Insulin 1 ng/ml sc) | Diuresis (STZ Diabetic Rats; Extract 1 200 μg/ml po) | Glucosuria (STZ Diabetic Rats; [4]) | Ketonuria (STZ Diabetic Rats; [4]) | Weight gain (STZ Diabetic Rats; [4]) | Bacterial mutagenicity [3] | Activity of liver cells: Effect on glucagon response (glucagon response)
O[C@H]1[C@H](O)[C@@H](O)[C@H](O)[C@@H](O)[C@H]1O [Inositol] | negative | negative | inactive | no evidence |  |  |  |  |  |  | 
Insulin | restored * | decreased *** |  |  | reversed | reduced | reduced | reduced | normalised | negative | reversed ***
